In patent US9309227B2, “N-biphenylmethylbenzimidazole modulators of PPARG” (The Scripps Research Institute, priority 2011, dated 2016):

Columns and labels:
[1] = molecular target: T1, GST-PPARG-LBD (Homo sapiens, UniProt P37231); experiment: Lanthascreen PPARG competitive binding assay (Invitrogen); details: Table 3; read-out: IC50 (nM) Lantha
T1 construct: A mixture of 5 nM GST-PPARG-LBD; purchased Invitrogen
T1 sequence (P37231 238-503 limits assumed): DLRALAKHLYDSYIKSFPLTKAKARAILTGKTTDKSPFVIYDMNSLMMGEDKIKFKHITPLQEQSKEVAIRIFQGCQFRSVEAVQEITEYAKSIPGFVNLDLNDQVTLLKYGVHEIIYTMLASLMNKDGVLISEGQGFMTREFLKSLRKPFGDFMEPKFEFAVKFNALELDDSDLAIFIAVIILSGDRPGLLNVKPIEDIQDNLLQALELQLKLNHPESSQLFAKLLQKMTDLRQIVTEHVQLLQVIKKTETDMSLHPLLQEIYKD
Experimental: Lanthascreen PPARG Competitive Binding Assay (Invitrogen)
The assay was performed according to manufacturer protocol. A mixture of 5 nM GST-PPARG-LBD, 5 nM Tb-GST-antibody, […] Pan-PPAR Green, and serial dilutions of the experimental compound, beginning at 10 μM downwards, was added to wells of black 384-well low-volume plates (Greiner) to a total volume of 18 μL. All dilutions were made in TR-FRET assay buffer C. DMSO at 2% final concentration was used as a no-ligand control. Experiment was performed in triplicate, and incubated tier 2 hours in the dark prior to assay read in Perkin Elmer ViewLux ultra HTS microplate reader. FRET signal was measured by excitation at 340 nm and emission at 520 nm for fluorescein and […] for terbium. Fold change over DMSO was calculated using GraphPad Prism Software (La Jolla, Calif.) by calculating 520 nm/490 nm ratio. Graphs were plotted as fold change of FRET signal for compound treatment over DMSO-only control.

[2] = molecular target: T2, PPARG (Homo sapiens, UniProt P37231); experiment: Gal 4 assay (ED50 and % act); type: cell-based; details: for activation at 1 µM: read-out: GL 4% act 1 μM; for activation at 10 µM: read-out: GL 4% act 10 μM
T2 sequence (P37231 204-505): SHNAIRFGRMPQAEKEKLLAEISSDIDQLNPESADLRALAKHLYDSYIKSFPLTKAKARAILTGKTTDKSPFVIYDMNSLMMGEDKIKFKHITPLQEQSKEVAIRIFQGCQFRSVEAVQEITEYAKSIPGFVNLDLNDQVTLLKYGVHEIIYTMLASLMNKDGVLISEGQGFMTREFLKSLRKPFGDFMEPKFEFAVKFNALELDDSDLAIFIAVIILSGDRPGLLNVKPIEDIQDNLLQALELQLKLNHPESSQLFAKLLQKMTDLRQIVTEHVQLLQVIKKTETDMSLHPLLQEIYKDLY

[3] = test system: PPARG; experiment: Cell-based transactivation assay (PPRE-luciferase reporter co-transfected with PPARG in COS-1 cells); set-up: species or system human or mouse; details: COS-1 cells
Experimental: (§1) Cell-Based Transactivation Assay:
(§2) PPRE is a DNA that contains a binding site for PPARG; thus PPRE is a PPAR response element, used herein as a promoter reporter. The binding site is a DR1 response element with the sequence AGGTCA repeated 3 times in tandem and then fused to a construct for luciferase.
(§3) Thus, PPRE is the basis of the cell based transactivation assay described below. The plasmid DNA is co-transfected along with a plasmid for PPARG into COS-1 cells. After an overnight incubation, cells are treated with DMSO or compounds.
(§4) Confluent COS-1 cells were transfected with 4.5 μg murine PPARg2-pSV Sport. or full-length human PPARg-pSport6, 4.5 μg 3×PPRE-luciferase reporter and 27 μL X-treme Gene 9 transfection reagent in serum-free opti-mem media (Gibco), followed by overnight incubation at 37° C., 5% CO2. Transfected cells were plated in white Perkin Elmer 384-well plates and incubated 4 hours. […] After 18 hour incubation, treated cells were developed with Brite Lite Plus (Perkin Elmer) and read in 384-well Luminescence Perkin Elmer En Vision Multilabel plate reader. Graphs were plotted in triplicate in GraphPad Prism Software as fold change of treated cells over DMSO control cells.

[4] = molecular target: T3, PPARG (UniProt P37231); experiment: as above; set-up: species or system human or mouse
T3 construct: PPRE % act 1 μM; other: 1 μM
T3 sequence (P37231 1-505): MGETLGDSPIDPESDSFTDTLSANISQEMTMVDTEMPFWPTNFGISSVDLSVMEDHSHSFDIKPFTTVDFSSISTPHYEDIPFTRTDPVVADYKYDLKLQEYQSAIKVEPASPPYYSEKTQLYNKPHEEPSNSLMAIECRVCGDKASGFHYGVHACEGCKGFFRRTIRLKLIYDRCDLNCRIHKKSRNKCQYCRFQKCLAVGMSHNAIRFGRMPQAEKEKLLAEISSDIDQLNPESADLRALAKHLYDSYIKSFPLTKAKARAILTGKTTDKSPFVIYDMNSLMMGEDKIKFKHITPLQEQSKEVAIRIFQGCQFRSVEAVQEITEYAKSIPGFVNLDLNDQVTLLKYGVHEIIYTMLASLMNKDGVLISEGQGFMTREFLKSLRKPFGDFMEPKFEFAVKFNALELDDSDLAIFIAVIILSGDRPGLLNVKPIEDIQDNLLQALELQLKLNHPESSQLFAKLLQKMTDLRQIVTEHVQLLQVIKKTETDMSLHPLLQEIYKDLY
Experimental: as §1, §2, §3, §4

Molecule | IC50 [1] [nM] | further results
CC(C)CCC(C)NC(=O)c1ccc2ncn(Cc3ccc(-c4ccccc4C(=O)O)cc3)c2c1 (centres unmarked) [Compound 20] | 2550 | –
CC(C)CCNC(=O)c1ccc2c(c1)ncn2Cc1ccc(-c2ccccc2C(=O)O)cc1 [Compound 18, 4′-((5-(isopentylcarbamoyl)-1H-benzo[d]imidazol-1-yl)methyl)-[1,1′-biphenyl]-2-carboxylic acid] | 2430 | –
CC(C)CC(C)NC(=O)c1ccc2c(c1)ncn2Cc1ccc(-c2ccccc2C(=O)O)cc1 (centres unmarked) [Compound 14, 4′((5-((4-methylpentan-2-yl)carbamoyl)-1H-benzo[d]imidazol-1-yl)methyl)-[1,1′-biphenyl]-2-carboxylic acid] | 102 | activation at 1 µM [2]: 7.71%; activation at 10 µM [2]: 32.2%
CN(CCOc1ccc(CC2SC(=O)NC2=O)cc1)c1ccccn1 (centres unmarked) [rosiglitazone, reference compound] | – | activation of the PPRE reporter [3]: about 5 fold
CC(C)CCC(C)NC(=O)c1ccc2c(c1)ncn2Cc1ccc(-c2ccccc2C(=O)O)cc1 (centres unmarked) [Compound 13, 4′-((5-(5-methylhexan-2-ylcarbamoyl)-1H-benzo[d]imidazol-1-yl)methyl)biphenyl-2-carboxylic acid] | 26.7 | activation at 1 µM [2]: 22.5%; activation at 10 µM [2]: 60.5%
O=C(NCC1CC1)c1ccc2c(c1)ncn2Cc1ccc(-c2ccccc2C(=O)O)cc1 [Compound 17, 4′-((5 ((cyclopropylmethyl)carbamoyl)-1H-benzo[d]imidazol-1-yl)methyl)-[1,1′-biphenyl]-2-carboxylic acid] | 22100 | –
Cc1nc2cc(C(=O)N[C@@H](C)c3cccc(C(C)C)c3)ccc2n1Cc1ccc(-c2ccccc2C(O)C(F)(F)F)cc1 (stereo partly drawn) [Compound 25, N—((S)-1-(3-isopropylphenyl)ethyl)-2-methyl-1-((2′-(2,2,2-trifluoro-1-hydroxyethyl)biphenyl-4-yl)methyl)-1H-benzo[d]imidazole-5-carboxamide] | 5470 | –
Cc1nc2cc(C(=O)N[C@@H](C)c3cccc(C(C)C)c3)ccc2n1Cc1ccc(-c2cccnc2C(=O)O)cc1 [Compound 29, (S)-3-(4-((5-(1-(3-isopropylphenyl)ethylcarbamoyl)-2-methyl-1H-benzo[d]imidazol-1-yl)methyl)phenyl)picolinic acid] | 4800 | –
CC(C)c1cccc([C@H](C)NC(=O)c2ccc3c(c2)ncn3Cc2ccc(-c3cccnc3C(=O)O)cc2)c1 [Compound 24, (S)-3-(4-((5-(1-(3-isopropylphenyl)ethylcarbamoyl)-1H-benzo[d]imidazol-1-yl)methyl)phenyl)picolinic acid] | 2130 | –
CC(C)c1cccc([C@H](C)NC(=O)c2ccc3c(c2)ncn3Cc2ccc(-c3ccccc3C(O)C(F)(F)F)cc2)c1 (stereo partly drawn) [Compound 26, N—((S)-1-(3-isopropylphenyl)ethyl)-1-((2′-(2,2,2-trifluoro-1-hydroxyethyl)biphenyl-4-yl)methyl)-1H-benzo[d]imidazole-5-carboxamide] | 15700 | –
MRL24 [reference compound] | – | transactivation of the reporter, of rosiglitazone response ([3]; relative to rosiglitazone): about 25%
COCCCNC(=O)c1ccc2c(c1)ncn2Cc1ccc(-c2ccccc2C(=O)O)cc1 [Compound 15, 4′-((5-(3-methoxypropylcarbamoyl)-1H-benzo[d]imidazol-1-yl)methyl)biphenyl-2-carboxylic acid] | 15000 | –
CC(C)CC(C)NC(=O)c1ccc2ncn(Cc3ccc(-c4ccccc4C(=O)O)cc3)c2c1 (centres unmarked) [Compound 19, 4′-((6-(4-methylpentan-2-ylcarbamoyl)-1H-benzo[d]imidazol-1-yl)methyl)biphenyl-2-carboxylic acid] | 9.02 | –
CCOCCNC(=O)c1ccc2c(c1)ncn2Cc1ccc(-c2ccccc2C(=O)O)cc1 [Compound 16, 4′-((5-(2-ethoxyethylcarbamoyl)-1H-benzo[d]imidazol-1-yl)methyl)biphenyl-2-carboxylic acid] | 9790 | –
COC(=O)c1ccccc1-c1ccc(Cn2cnc3cc(C(=O)N[C@@H](C)c4cccc(C(C)C)c4)ccc32)cn1 [Compound 28, (S)-methyl 2-(5-((5-((1-(3-isopropylphenyl)ethyl)carbamoyl)-1H-benzo[d]imidazol-1-yl)methyl)pyridin-2-yl)benzoate] | 9070 | –
CC(C)c1cccc([C@H](C)NC(=O)c2ccc3c(c2)ncn3Cc2ccc(-c3ccccc3CO)cc2)c1 [Compound 21, (S)-1-((2′-(hydroxymethyl)biphenyl-4-yl)methyl)-N-(1-(3-isopropylphenyl)ethyl)-1H-benzo[d]imidazole-5-carboxamide] | 6490 | –
CC(C)c1cccc([C@H](C)NC(=O)c2ccc3c(c2)ncn3Cc2ccc(-c3ccccc3C(=O)O)cc2)c1 [Compound 22, (S)-4′-((5-(1-(3-isopropylphenyl)ethylcarbamoyl)-1H-benzo[d]imidazol-1-yl)methyl)biphenyl-2-carboxylic acid] | 1830 | –
CC(C)c1cccc([C@H](C)NC(=O)c2ccc3c(c2)ncn3Cc2ccc(-c3ccccc3C(=O)O)nc2)c1 [Compound 27, (S)-2-(5-((5-((1-(3-isopropylphenyl)ethyl)carbamoyl)-1H-benzo[d]imidazol-1-yl)methyl)pyridin-2-yl)benzoic acid] | 8740 | –
CC(C)c1cccc([C@H](C)NC(=O)c2ccc3c(c2)ncn3Cc2ccc(-c3ccccc3C(=O)O)cc2)c1 [Compound 23] | 683 | PPRE % act 1 μM ([4]; 1 μM): −10.26%; EC50 ([4]; Table 3): 1.61 nM; activation at 1 µM [2]: 12.9%
